Results taken from PMC10128460, “Discovery of the first-in-class potent and isoform-selective human carbonic anhydrase III inhibitors” (Journal of Enzyme Inhibition and Medicinal Chemistry, 2023).
“And” between values parts separate entries of the source, which are not always exact repeats. Equal values may be shown once. Read-outs that look alike come from different tables or passages of the source.

Experiments:
hCA I = target: T1, hCA I (Homo sapiens, UniProt P00915); experiment: Stopped-Flow CO2 hydrase assay, hCA I; type: biochemical; conditions: mean from 3 assays, errors ± 5–10%
T1 construct: made in house
T1 sequence (P00915 whole entry): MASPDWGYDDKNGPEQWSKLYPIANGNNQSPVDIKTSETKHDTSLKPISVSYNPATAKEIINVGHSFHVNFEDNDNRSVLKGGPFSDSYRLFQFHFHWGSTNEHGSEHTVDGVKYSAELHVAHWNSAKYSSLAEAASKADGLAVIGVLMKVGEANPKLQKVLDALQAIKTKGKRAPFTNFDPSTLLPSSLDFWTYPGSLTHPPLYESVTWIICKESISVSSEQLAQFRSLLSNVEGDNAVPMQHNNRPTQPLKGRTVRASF
Method: (§1) An Applied Photophysics stopped-flow instrument has been used for assaying the CA catalysed CO2 hydration activity[47]. […] The CO2 concentrations ranged from 1.7 to 17 mM for the determination of the kinetic parameters and inhibition constants. […] The uncatalysed rates were determined in the same manner and subtracted from the total observed rates. Stock solutions of inhibitor (0.1 mM) were prepared in distilled − deionized water and dilutions up to 0.01 nM were done thereafter with the assay buffer. Inhibitor and enzyme solutions were preincubated together for 15 min at room temperature before assay to allow for the formation of the E − I complex. The inhibition constants were obtained by nonlinear least-squares methods using PRISM 3 and the Cheng − Prusoff equation, as reported earlier[48]^,[49], and represent the mean from at least three different determinations. […] All hCA isoforms were recombinant ones obtained in-house as reported earlier[50].

hCA II = target: T2, hCA II (Homo sapiens, UniProt P00918); experiment: Stopped-Flow CO2 hydrase assay, hCA II; type: biochemical; conditions: mean from 3 assays, errors ± 5–10%
T2 construct: made in house
Method: as §1

hCA III [1] = target: T3, hCA III (Homo sapiens, UniProt P07451); experiment: Stopped-Flow CO2 hydrase assay, hCA III; type: biochemical; conditions: for Selectivity Index (SI) hCA I/hCA III: ratio of KI hCA I to KI hCA III; for Selectivity Index (SI) hCA II/hCA III: ratio of KI hCA II to KI hCA III; for Ki: stopped-flow CO2 hydrase, mean from 3 assays, errors ± 5–10%
T3 construct: made in house
T3 sequence (P07451 whole entry): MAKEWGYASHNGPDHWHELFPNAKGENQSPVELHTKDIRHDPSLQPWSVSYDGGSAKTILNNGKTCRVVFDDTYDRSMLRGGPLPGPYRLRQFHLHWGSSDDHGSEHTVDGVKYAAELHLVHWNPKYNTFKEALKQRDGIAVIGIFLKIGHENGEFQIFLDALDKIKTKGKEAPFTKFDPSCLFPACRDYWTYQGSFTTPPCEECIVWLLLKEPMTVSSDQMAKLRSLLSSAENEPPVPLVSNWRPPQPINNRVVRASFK
Method: as §1

hCA IV = target: T4, hCA IV (Homo sapiens, UniProt P22748); experiment: Stopped-Flow CO2 hydrase assay, hCA IV; type: biochemical; conditions: mean from 3 assays, errors ± 5–10%
T4 construct: made in house
T4 sequence (P22748 19-312): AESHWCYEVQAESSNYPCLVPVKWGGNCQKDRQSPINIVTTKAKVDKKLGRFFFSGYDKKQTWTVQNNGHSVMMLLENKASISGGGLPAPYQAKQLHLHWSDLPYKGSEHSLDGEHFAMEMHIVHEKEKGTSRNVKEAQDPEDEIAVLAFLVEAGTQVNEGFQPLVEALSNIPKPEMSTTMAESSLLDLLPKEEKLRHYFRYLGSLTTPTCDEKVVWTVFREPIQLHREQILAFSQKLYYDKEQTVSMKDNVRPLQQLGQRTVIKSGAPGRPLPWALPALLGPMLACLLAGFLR
Method: as §1

hCA VA = target: T5, hCA VA (Homo sapiens, UniProt P35218); experiment: Stopped-Flow CO2 hydrase assay, hCA VA; type: biochemical; conditions: stopped-flow CO2 hydrase, mean from 3 assays, errors ± 5–10%; read-out: KI hCA VA
T5 construct: made in house
T5 sequence (P35218 39-305): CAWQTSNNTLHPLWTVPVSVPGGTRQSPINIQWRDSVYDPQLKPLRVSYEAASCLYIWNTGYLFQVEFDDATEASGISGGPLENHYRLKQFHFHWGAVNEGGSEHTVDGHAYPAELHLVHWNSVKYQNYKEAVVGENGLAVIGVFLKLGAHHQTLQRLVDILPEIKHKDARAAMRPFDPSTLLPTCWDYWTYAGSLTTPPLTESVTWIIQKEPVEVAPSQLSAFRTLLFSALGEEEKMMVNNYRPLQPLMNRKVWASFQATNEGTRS
Method: as §1

hCA VB = target: T6, hCA VB (Homo sapiens, UniProt Q9Y2D0); experiment: Stopped-Flow CO2 hydrase assay, hCA VB; type: biochemical; conditions: mean from 3 assays, errors ± 5–10%
T6 construct: made in house
T6 sequence (Q9Y2D0 34-317): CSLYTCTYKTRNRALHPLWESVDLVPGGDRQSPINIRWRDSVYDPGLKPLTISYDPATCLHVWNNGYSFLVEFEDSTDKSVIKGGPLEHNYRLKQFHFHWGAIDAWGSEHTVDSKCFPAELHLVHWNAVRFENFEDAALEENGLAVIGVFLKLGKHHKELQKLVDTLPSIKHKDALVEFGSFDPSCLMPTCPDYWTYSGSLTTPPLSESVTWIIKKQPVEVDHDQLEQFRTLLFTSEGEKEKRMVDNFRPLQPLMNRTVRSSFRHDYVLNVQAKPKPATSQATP
Method: as §1

hCA VII = target: T7, hCA VII (Homo sapiens, UniProt P43166); experiment: Stopped-Flow CO2 hydrase assay, hCA VII; type: biochemical; conditions: mean from 3 assays, errors ± 5–10%
T7 construct: made in house
T7 sequence (P43166 whole entry): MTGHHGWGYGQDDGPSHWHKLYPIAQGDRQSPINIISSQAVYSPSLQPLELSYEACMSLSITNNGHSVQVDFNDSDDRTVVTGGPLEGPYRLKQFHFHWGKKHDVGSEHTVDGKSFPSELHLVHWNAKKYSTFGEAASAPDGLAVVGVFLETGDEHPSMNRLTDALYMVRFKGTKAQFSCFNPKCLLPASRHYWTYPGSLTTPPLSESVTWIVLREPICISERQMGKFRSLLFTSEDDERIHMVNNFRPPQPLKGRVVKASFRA
Method: as §1

hCA XII = target: T8, hCA XII (Homo sapiens, UniProt O43570); experiment: Stopped-Flow CO2 hydrase assay, hCA XII; type: biochemical; conditions: mean from 3 assays, errors ± 5–10%
T8 construct: made in house
T8 sequence (O43570 25-354): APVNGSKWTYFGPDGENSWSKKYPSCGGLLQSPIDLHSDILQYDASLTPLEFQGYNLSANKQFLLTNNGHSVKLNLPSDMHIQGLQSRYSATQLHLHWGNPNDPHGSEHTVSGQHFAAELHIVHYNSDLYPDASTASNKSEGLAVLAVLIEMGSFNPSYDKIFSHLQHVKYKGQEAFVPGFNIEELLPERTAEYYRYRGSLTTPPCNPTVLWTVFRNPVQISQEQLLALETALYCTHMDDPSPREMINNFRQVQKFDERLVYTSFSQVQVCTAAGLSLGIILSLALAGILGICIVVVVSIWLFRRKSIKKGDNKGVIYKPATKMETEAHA
Method: as §1

hCA III [2] = target: T3, hCA III; design: method as in PMID 23605884; conditions: HPLC assay; cited from earlier work

Row | SMILES | Ki (hCA I) [µM] | Ki (hCA II) [µM] | Selectivity Index (SI) hCA I/hCA III (hCA III [1]) | Selectivity Index (SI) hCA II/hCA III (hCA III [1]) | Ki (hCA III [1]) [µM] | Ki (hCA IV) [µM] | Ki (hCA VA) [µM] | Ki (hCA VB) [µM] | Ki (hCA VII) [µM] | Ki (hCA XII) [µM] | melting point [°C] | Ki (hCA III [2]) [µM]
1 | NS(=O)(=O)CCCCn1cc(CNC(=O)Nc2ccc(C(F)(F)F)cc2)nn1 [Compound 46, 4–(4-((3–(4-(Trifluoromethyl)phenyl)ureido)methyl)-1H-1,2,3-triazol-1-yl)butane-1-sulfonamide] | 5.39 | 0.879 | 9.7 | 1.6 | 0.553 | 3.59 | 1.8 | 5.87 | 3.61 | 2.63 | > 300 | –
2 | CCOC(=O)c1ccc(NC(=O)NCc2cn(CCCCS(N)(=O)=O)nn2)cc1 [Compound 47, Ethyl 4–(3-((1–(4-sulfamoylbutyl)-1H-1,2,3-triazol-4-yl)methyl)ureido)benzoate] | 6.52 | 0.566 | 13.2 | 1.15 and 1.1 | 0.493 | 2.6 | 3.82 | 1.43 | 1.95 | 2.83 | 259 to 261 | –
3 | COc1cccc(NC(=O)NCc2cn(CCCCS(N)(=O)=O)nn2)c1 [Compound 48, 4–(4-((3–(3-Methoxyphenyl)ureido)methyl)-1H-1,2,3-triazol-1-yl)butane-1-sulfonamide] | 5.52 | 4.61 | 11.6 | 9.7 | 0.476 | > 10 | 4.16 | 1.14 | 3.9 | 4.66 | 217 to 218 | –
4 | COc1cc(C(=O)O)ccc1O [vanillic acid] | – | – | – | – | – | – | – | – | – | – | – | 87
